Laboratory results as given in US5919756A, “Amides” (Eli Lilly and Company, priority 1997, dated 1999).
In brackets after ≈: the same amount, converted by molar mass.

Assays:
Format in all cases: cell-based
[1] = tested on: Enterococcus, Sensitive (4-6 isolates); experiment: Enterococcus screen, broth micro-dilution MIC, sensitive isolates; design: unit not given here; conditions: mean of 4-6 isolates
Procedure: (§1) The antibacterial efficacy of the present compounds is illustrated in TABLE 2. The minimal inhibitory concentrations (MICs) were determined using a standard broth micro-dilution assay.

[2] = tested on: Staphylococcus haemolyticus 415; experiment: Broth micro-dilution MIC, SH 415; conditions: unit assumed
Procedure: as §1

[3] = tested on: Staphylococcus haemolyticus 105; experiment: Broth micro-dilution MIC, SH 105; conditions: unit assumed
Procedure: as §1

[4] = tested on: Enterococcus, Resistant (4-6 isolates); experiment: Enterococcus screen, broth micro-dilution MIC, resistant isolates; design: unit not given here; conditions: mean of 4-6 isolates
Procedure: as §1

[5] = tested on: Streptococcus pneumoniae P1; experiment: Broth micro-dilution MIC, S PN P1; conditions: unit assumed
Procedure: as §1

[6] = tested on: Streptococcus pyogenes 203; experiment: Broth micro-dilution MIC, S PY 203; conditions: unit assumed
Procedure: as §1

[7] = tested on: Staphylococcus aureus 446; experiment: Broth micro-dilution MIC, SA 446; conditions: unit assumed
Procedure: as §1

[8] = tested on: Staphylococcus aureus 447; experiment: Broth micro-dilution MIC, SA 447; conditions: unit assumed
Procedure: as §1

[9] = tested on: Staphylococcus epidermis 270; experiment: Broth micro-dilution MIC, SE 270; conditions: unit assumed
Procedure: as §1

[10] = tested on: Staphylococcus aureus 489; experiment: Broth micro-dilution MIC, SA 489; conditions: unit assumed
Procedure: as §1

Row | Molecule | Minimum Inhibitory Concentrations (MICs), Mean Values of 4-6 Isolates, Sensitive [1] | MIC, SH415 [2] [µg/mL] | MIC, SH105 [3] [µg/mL] | Minimum Inhibitory Concentrations (MICs), Mean Values of 4-6 Isolates, Resistant [4] | MIC, S PN P1 [5] [µg/mL] | MIC, S PY 203 [6] [µg/mL] | MIC, SA 446 [7] [µg/mL] | MIC, SA 447 [8] [µg/mL] | MIC, SE270 [9] [µg/mL] | MIC, SA 489 [10] [µg/mL]
1 | CNC(CC(C)C)C(=O)NC1C(=O)NC(CC(N)=O)C(=O)NC2C(=O)NC3C(=O)NC(C(=O)NC(C(=O)NCCc4ccccc4)c4cc(O)cc(O)c4-c4cc3ccc4O)C(OC3CC(C)(N)C(O)C(C)O3)c3ccc(c(Cl)c3)Oc3cc2cc(c3OC2OC(CO)C(O)C(O)C2OC2CC(C)(NCc3ccc(-c4ccccc4)cc3)C(O)C(C)O2)Oc2ccc(cc2Cl)C1O.Cl (stereo not drawn) [Example 18, N^4-(4-phenylbenzyl)A82846B, phenethylamide, HCl salt] | 0.19 | 2 | 2 | 0.84 | ≤ 0.06 | ≤ 0.06 | 1 | 1 | 1 | 2
2 | CNC(CC(C)C)C(=O)NC1C(=O)NC(CC(N)=O)C(=O)NC2C(=O)NC3C(=O)NC(C(=O)NC(C(=O)NCCc4ccccc4)c4cc(O)cc(O)c4-c4cc3ccc4O)C(OC3CC(C)(N)C(O)C(C)O3)c3ccc(c(Cl)c3)Oc3cc2cc(c3OC2OC(CO)C(O)C(O)C2OC2CC(C)(NCc3ccc(-c4ccc(C)cc4)cc3)C(O)C(C)O2)Oc2ccc(cc2Cl)C1O (stereo not drawn) [Example 19, N^4-(4-(4-methylphenyl)benzyl)-A82846B, phenethylamide] | 0.22 | 4 (≈ 2.13 µM) | 2 (≈ 1.07 µM) | 1 | ≤ 0.06 | ≤ 0.06 | 2 (≈ 1.07 µM) | 4 (≈ 2.13 µM) | 2 (≈ 1.07 µM) | 2 (≈ 1.07 µM)
3 | CNC(CC(C)C)C(=O)NC1C(=O)NC(CC(N)=O)C(=O)NC2C(=O)NC3C(=O)NC(C(=O)NC(C(=O)NCCCc4ccccc4)c4cc(O)cc(O)c4-c4cc3ccc4O)C(OC3CC(C)(N)C(O)C(C)O3)c3ccc(c(Cl)c3)Oc3cc2cc(c3OC2OC(CO)C(O)C(O)C2OC2CC(C)(N)C(O)C(C)O2)Oc2ccc(cc2Cl)C1O (stereo not drawn) [Example 20, A82846B, (3-phenyl-n-propyl) amide] | 0.22 | 0.25 (≈ 0.146 µM) | 0.125 (≈ 0.0731 µM) | 11 | ≤ 0.06 | ≤ 0.06 | 0.125 (≈ 0.0731 µM) | ≤ 0.06 | ≤ 0.06 | ≤ 0.06
4 | CNC(CC(C)C)C(=O)NC1C(=O)NC(CC(N)=O)C(=O)NC2C(=O)NC3C(=O)NC(C(=O)NC(C(=O)NCCCN(C)C)c4cc(O)cc(O)c4-c4cc3ccc4O)C(OC3CC(C)(N)C(O)C(C)O3)c3ccc(c(Cl)c3)Oc3cc2cc(c3OC2OC(CO)C(O)C(O)C2OC2CC(C)(NCc3ccc(-c4ccccc4)cc3)C(O)C(C)O2)Oc2ccc(cc2Cl)C1O (stereo not drawn) [Example 21, N^4-(4-phenylbenzyl)A82846B, (3-(dimethylamino)-n-propyl) amide] | 0.054 | 2 (≈ 1.09 µM) | 0.5 (≈ 0.271 µM) | 1.2 | ≤ 0.06 | ≤ 0.06 | 4 (≈ 2.17 µM) | 2 (≈ 1.09 µM) | 0.5 (≈ 0.271 µM) | 2 (≈ 1.09 µM)
5 | CNC(CC(C)C)C(=O)NC1C(=O)NC(CC(N)=O)C(=O)NC2C(=O)NC3C(=O)NC(C(=O)NC(C(=O)NCCC(c4ccccc4)c4ccccc4)c4cc(O)cc(O)c4-c4cc3ccc4O)C(OC3CC(C)(N)C(O)C(C)O3)c3ccc(c(Cl)c3)Oc3cc2cc(c3OC2OC(CO)C(O)C(O)C2OC2CC(C)(NCc3ccc(-c4ccccc4)cc3)C(O)C(C)O2)Oc2ccc(cc2Cl)C1O (stereo not drawn) [Example 22, N^4-(4-phenylbenzyl)A82846B, (3,3-diphenyl-n-propyl) amide] | 0.87 | 8 (≈ 4.1 µM) | 8 (≈ 4.1 µM) | 1.68 | 0.125 (≈ 0.064 µM) | 0.125 (≈ 0.064 µM) | 32 (≈ 16.4 µM) | 32 (≈ 16.4 µM) | 16 (≈ 8.2 µM) | 32 (≈ 16.4 µM)
6 | CNC(CC(C)C)C(=O)NC1C(=O)NC(CC(N)=O)C(=O)NC2C(=O)NC3C(=O)NC(C(=O)NC(C(=O)NCCCN(C)C)c4cc(O)cc(O)c4-c4cc3ccc4O)C(OC3CC(C)(N)C(O)C(C)O3)c3ccc(c(Cl)c3)Oc3cc2cc(c3OC2OC(CO)C(O)C(O)C2OC2CC(C)(N)C(O)C(C)O2)Oc2ccc(cc2Cl)C1O.O=C(O)C(F)(F)F (stereo not drawn) [Example 23, A82846B, (3-(dimethylamino)-n-propyl)amide, trifluoroacetate salt] | 0.44 | ≤ 0.06 | ≤ 0.06 | > 128 | ≤ 0.06 | ≤ 0.06 | 0.125 | 0.125 | ≤ 0.06 | ≤ 0.06
7 | CNC(CC(C)C)C(=O)NC1C(=O)NC(CC(N)=O)C(=O)NC2C(=O)NC3C(=O)NC(C(=O)NC(C(=O)NCc4ccccc4)c4cc(O)cc(O)c4-c4cc3ccc4O)C(OC3CC(C)(N)C(O)C(C)O3)c3ccc(c(Cl)c3)Oc3cc2cc(c3OC2OC(CO)C(O)C(O)C2OC2CC(C)(N)C(O)C(C)O2)Oc2ccc(cc2Cl)C1O.O=C(O)C(F)(F)F (stereo not drawn) [Example 24, A82846B, benzylamide, trifluoroacetate salt] | 0.38 | ≤ 0.06 | ≤ 0.06 | > 128 | ≤ 0.06 | ≤ 0.06 | ≤ 0.06 | ≤ 0.06 | ≤ 0.06 | ≤ 0.06
8 | N^4 -(4-PHENOXYBENZYL)A82846B, 3-(DIMETHYLAMINO)PROPYLAMIDE, TRIFLUOROACETATE SALT [Example 1] | 0.13 | 2 | 2 | 1.4 | ≤ 0.125 | ≤ 0.06 | 4 | 1 | 0.25 | 2
9 | N^4 -(4-phenoxybenzyl)A82846B, benzylamide, trifiuoroacetate salt [Example 9] | 0.082 | 1 | 1 | 2 | ≤ 0.06 | ≤ 0.06 | 1 | 1 | 0.5 | 1
10 | N^4 -(4-phenoxybenzyl)A82846B, phenethylamide, trifluoroacetate salt [Example 14] | 0.01 | 2 | 0.5 | 2 | ≤ 0.06 | ≤ 0.06 | 2 | 2 | 1 | 1
11 | N^4 -(4-phenylbenzy1)A82846B, DL-(2-furanon-3-yl)amide [Example 7] | 0.048 | 1 | 0.5 | 1.7 | ≤ 0.06 | ≤ 0.06 | 2 | 2 | 0.5 | 1
12 | N^4 -(4-phenylbenzyl)A82846B, (4-cyclohexylphenyl) amide, trifluoroacetate salt [Example 8] | 0.33 | 4 | 4 | 6.7 | ≤ 0.06 | ≤ 0.06 | 2 | 2 | 2 | 4
